Reference: the CheMixHub ionic liquid set

Experiment: xn = mol fraction of the nth substance listed

CC(C)C[C@H](N)C(=O)[O-].CCCC[P+](CCCC)(CCCC)CCCN + O
333.15 K, 101 kPa, x2 = 0
Conditions	electrical conductivity [S/m]	viscosity [mPa·s]
–	0.0413	130.5

CCCCCCCC(=O)[O-].c1c[nH+]c[nH]1 + O
101.3 kPa
Conditions	viscosity [mPa·s]
293.15 K, x2 = 0.3042	53.53
293.15 K, x2 = 0.4091	50.43
293.15 K, x2 = 0.6017	39.83
298.15 K, x2 = 0.5119	37.4
298.15 K, x2 = 0.7995	18.69
303.15 K, x2 = 0.3042	34.6
303.15 K, x2 = 0.6643	24.26
313.15 K, x2 = 0.1964	24.17
313.15 K, x2 = 0.8154	10.93
318.15 K, x2 = 0.0989	23.17
318.15 K, x2 = 0.3042	19.22
318.15 K, x2 = 0.6017	16.16
318.15 K, x2 = 0.8154	9.92
323.15 K, x2 = 0	25.33
323.15 K, x2 = 0.0989	19.77
323.15 K, x2 = 0.3042	16.85
323.15 K, x2 = 0.8154	9.3

CCCCCCCCCCCCCCCC[P+](CCCC)(CCCC)CCCC.[Br-] + O
300 K, 101 kPa
Conditions	electrical conductivity [S/m]
x2 = 0.201	0.00035
x2 = 0.302	0.00035
x2 = 0.402	0.00035
x2 = 0.502	0.00035

CCCCCC[n+]1ccn(C)c1.O=S(=O)([N-]S(=O)(=O)C(F)(F)F)C(F)(F)F + O
Conditions	electrical conductivity [S/m]
295.15 K, 101 kPa, x2 = 0.233	0.29

CCCCCC[n+]1ccn(C)c1.[Br-] + O
viscosity [mPa·s]
Conditions	288.15 K	298.15 K	308.15 K	318.15 K
100 kPa, x1 = 0.0001802	1.159	0.926	0.762	0.645
100 kPa, x1 = 0.0007203	1.165	0.934	0.77	0.643
100 kPa, x1 = 0.00126	1.171	0.942	0.776	0.66
100 kPa, x2 = 0.9008	–	6.89	–	–
101 kPa, x1 = 1.982e-05	1.136	–	0.722	–
101 kPa, x1 = 3.243e-05	1.138	0.891	0.723	–
101 kPa, x1 = 6.667e-05	1.142	0.896	0.726	–
101 kPa, x1 = 0.001844	–	0.948	–	–
101 kPa, x1 = 0.003654	–	1.005	–	–
101 kPa, x1 = 0.005425	–	1.053	–	–
101 kPa, x1 = 0.007153	–	1.101	–	–

CC[n+]1ccn(C)c1.COS(=O)(=O)[O-] + O
101 kPa
Conditions	viscosity [mPa·s]
288.15 K, x2 = 0.0023	137.7
288.15 K, x2 = 0.8948	4.861
298.15 K, x2 = 0.0023	83.9
298.15 K, x2 = 0.0887	80.2
308.15 K, x2 = 0.2235	42.26
308.15 K, x2 = 0.4163	24.36
308.15 K, x2 = 0.8948	2.817
318.15 K, x2 = 0.0023	37.81
328.15 K, x2 = 0.0023	27.34
338.15 K, x2 = 0.4163	10.89
338.15 K, x2 = 0.6106	5.924

CCn1cc[n+](CC)c1.O=S(=O)([N-]S(=O)(=O)C(F)(F)F)C(F)(F)F + O
100 kPa, x2 = 0.2772
Conditions	viscosity [mPa·s]
318.15 K	11.04
358.15 K	4.96

Cn1cc[n+](CCO)c1.O=C([O-])C(F)(F)C(F)(F)C(F)(F)C(F)(F)F + O
101 kPa
Conditions	electrical conductivity, 298.15 K [S/m]	viscosity, 298.15 K [mPa·s]	viscosity, 308.15 K [mPa·s]	viscosity, 318.15 K [mPa·s]
x1 = 0.01954	1.86	2.373	1.881	1.521
x1 = 0.0234	1.85	2.72	2.129	1.713
x1 = 0.02752	1.82	3.1	2.403	1.914
x1 = 0.02972	1.79	3.29	2.55	2.027
x1 = 0.03222	1.76	3.67	2.8	2.204
x1 = 0.03772	1.67	4.35	3.3	2.59
x1 = 0.04078	1.61	4.62	3.5	2.73
x1 = 0.04409	1.55	4.98	3.72	2.87
x1 = 0.05152	1.42	6.18	4.57	3.51
x1 = 0.05575	1.35	6.8	5	3.8
x1 = 0.0602	1.27	7.62	5.55	4.2
x1 = 0.06471	1.2	8.23	5.97	4.49
x1 = 0.07633	1.04	9.67	6.91	5.16
x1 = 0.082	0.97	10.72	7.6	5.62
x1 = 0.08895	0.89	12.37	8.65	6.3
x1 = 0.09727	0.81	13.43	9.39	6.84
x1 = 0.1069	0.73	15.01	10.41	7.54
x1 = 0.1275	0.6	18.85	12.87	9.24
x1 = 0.1399	0.54	22.47	15.15	10.73
x1 = 0.1574	0.465	26.8	17.82	12.47
x1 = 0.1727	0.415	29.6	19.6	13.63
x1 = 0.2189	0.309	38.1	24.8	16.97
x1 = 0.2539	0.257	43.9	28.2	19.16
x1 = 0.2952	0.213	52.2	33.1	22.22
x1 = 0.3469	0.173	64.4	40.2	26.6
x1 = 0.4176	0.134	86.6	52.8	34.3
x1 = 0.5205	0.097	131.5	77.3	48.9
x1 = 0.7217	0.053	232	129.6	78.3
x1 = 1	0.0315	713	351	190.8

CCCCCCCCOS(=O)(=O)[O-].CC[n+]1ccn(C)c1 + O + O=S(=O)([O-])[O-].[K+].[K+]
101 kPa, frequency 0.0005 MHz, x2 = 0.7992, x3 = 0.000271
Conditions	electrical conductivity [S/m]
283.15 K	0.565
285.15 K	0.611
288.15 K	0.685
291.15 K	0.763
293.15 K	0.818
298.15 K	0.965
303.15 K	1.13
313.15 K	1.49
323.15 K	1.91
333.15 K	2.43
343.15 K	2.94
353.15 K	3.49
358.15 K	3.81
363.15 K	4.13

101 kPa, x2 = 0.7992, x3 = 0.000271
Conditions	viscosity [mPa·s]
298.15 K	70.4
303.15 K	54.1
308.15 K	42.26
318.15 K	26.98
328.15 K	18.12
338.15 K	12.69
